Source: PubChem BioAssay AID1996
In brackets after ≈: the same amount, converted by molar mass.

conditions: buffer; pH 7.4; 200.0 µM

Which solubility kinetic does the source give for O=c1cnnc(Nc2ccccc2F)[nH]1 here?
The solubility kinetic was over 30.9 µg/mL.

With CC(=O)Nc1ccc2c(c1)ncn2-c1ccccc1 as the compound, how does the solubility kinetic read?
Its solubility kinetic is over 37.7 µg/mL.

For CCN1CCN(C(=O)/C(=C/c2cccs2)NC(=O)c2ccc(C)c(C)c2)CC1, which solubility kinetic is on record?
The solubility kinetic was 48.5 µg/mL (≈ 122 µM).

For O=C(CCC1CCCCC1)NCCN1CCOCC1, which solubility kinetic is on record?
The solubility kinetic was over 40.3 µg/mL.

For Cc1cc(C)c(S(=O)(=O)c2cc(F)ccc2C)c(=O)[nH]1, which solubility kinetic is on record?
The solubility kinetic was 13.3 µg/mL (≈ 45 µM).

Which solubility kinetic does the source give for O=C(Cc1ccsc1)Nc1cc(F)ccc1F here?
The solubility kinetic was over 38 µg/mL.

For NS(=O)(=O)c1ccc(CCNC(=O)c2ccc3ccccc3n2)cc1, which solubility kinetic is on record?
The solubility kinetic was 10.6 µg/mL (≈ 29.8 µM).

With O=C(NCCN1CCCCC1)Nc1ccc(F)cc1F as the compound, how does the solubility kinetic read?
Its solubility kinetic is over 42.5 µg/mL.

With Cc1ccc(S(=O)(=O)CC(O)COc2ccc(C#N)cc2)cc1 (stereo unspecified) as the compound, how does the solubility kinetic read?
The solubility kinetic was over 49.7 µg/mL.

With CN1CCCC(C(=O)c2ccc(-c3ccccc3)cc2)C1 (stereo unspecified) as the compound, how does the solubility kinetic read?
Its solubility kinetic is 27.3 µg/mL (≈ 97.7 µM).

For Cc1cccc(C(=O)N=c2sccn2C)c1[N+](=O)[O-], which solubility kinetic is on record?
The solubility kinetic was 17.3 µg/mL (≈ 62.4 µM).

Which solubility kinetic does the source give for CC1CCC(NC(=O)CCNS(=O)(=O)c2ccccc2)CC1 (stereo unspecified) here?
The solubility kinetic was over 48.7 µg/mL.

Which solubility kinetic does the source give for O=C(CC(Nc1ccc(Cl)cc1Cl)C(=O)O)c1ccccc1 (stereo unspecified) here?
Its solubility kinetic is 50 µg/mL (≈ 148 µM).

Which solubility kinetic does the source give for CCOc1ccc(/C=C(\C(=O)O)c2ccc(S(=O)(=O)N3CCCCC3)s2)cc1OC here?
The solubility kinetic was over 67.7 µg/mL.

Which solubility kinetic does the source give for Cc1ccccc1NC(=O)Cc1nnc(N)s1 here?
Its solubility kinetic is over 37.2 µg/mL.

With CCc1nc2c(c(=O)[nH]1)C(CC)(CC)Cc1ccccc1-2 as the compound, how does the solubility kinetic read?
Its solubility kinetic is 0.7 µg/mL (≈ 2.48 µM).

For CCOC(=O)C1(C)NC(c2ccco2)C2C(=O)N(C)C(=O)C21 (stereo unspecified), which solubility kinetic is on record?
The solubility kinetic was over 45.9 µg/mL.

For COC(=O)CNC(=O)C12CC3CC(C1)CC(c1ccc(C)cc1)(C3)C2, which solubility kinetic is on record?
Its solubility kinetic is 6.5 µg/mL (≈ 19 µM).

With CC(C)N1C(=O)CCC1C(=O)NCc1ccco1 (stereo unspecified) as the compound, how does the solubility kinetic read?
Its solubility kinetic is 29.2 µg/mL (≈ 117 µM).

For Cc1cccc(-n2c(O)c(C=NCCN3CCNCC3)c(=O)[nH]c2=S)c1, which solubility kinetic is on record?
The solubility kinetic was 51.2 µg/mL (≈ 137 µM).

For O=C(NCC(=O)N1CCCCCCC1)c1ccccc1Cl, which solubility kinetic is on record?
Its solubility kinetic is over 46.3 µg/mL.

For CC(=O)N1N=C(c2ccccc2)OC1c1cccnc1 (stereo unspecified), which solubility kinetic is on record?
Its solubility kinetic is over 40.1 µg/mL.

For Cc1cnc(NCCc2ccccc2)s1, which solubility kinetic is on record?
Its solubility kinetic is 23 µg/mL (≈ 105 µM).

Which solubility kinetic does the source give for COc1cc(SC)ccc1C(=O)Nc1ncc(C)s1 here?
The solubility kinetic was 1.4 µg/mL (≈ 4.76 µM).

With Cc1cccc(NC(=S)N2CCCCCC2)c1C as the compound, how does the solubility kinetic read?
The solubility kinetic was over 39.4 µg/mL.

Which solubility kinetic does the source give for COc1ccc2[nH]c(C(=O)NCCN3CCOCC3)cc2c1 here?
The solubility kinetic was 31.6 µg/mL (≈ 104 µM).

For CC1CCCN(CC(=O)c2ccc(Cl)c(Cl)c2)C1 (stereo unspecified), which solubility kinetic is on record?
Its solubility kinetic is 26 µg/mL (≈ 90.8 µM).

Which solubility kinetic does the source give for Fc1ccc(NC(=S)Nc2cccnc2)c(Cl)c1 here?
The solubility kinetic was over 42.3 µg/mL.

Which solubility kinetic does the source give for CC(=O)N1c2ccccc2-c2nc3ccccc3n2C1C (stereo unspecified) here?
The solubility kinetic was over 41.6 µg/mL.

For O=C(CSc1c[nH]c2ccccc12)NC1CCCC1, which solubility kinetic is on record?
The solubility kinetic was over 41.2 µg/mL.

With Fc1cccc(NC(=S)NCc2ccccc2Cl)c1 as the compound, how does the solubility kinetic read?
Its solubility kinetic is 1.6 µg/mL (≈ 5.43 µM).

Which solubility kinetic does the source give for COc1cccc(CSc2nc(N)cc(N)n2)c1 here?
The solubility kinetic was 28.6 µg/mL (≈ 109 µM).

Which solubility kinetic does the source give for O=C(NCCN1CCN(c2ccccc2)CC1)Nc1ccc(Cl)cc1 here?
The solubility kinetic was 3.7 µg/mL (≈ 10.3 µM).

For O=C(NCc1ccc2c(c1)OCO2)c1cc(=O)[nH]c2ccccc12, which solubility kinetic is on record?
The solubility kinetic was 6 µg/mL (≈ 18.6 µM).

Which solubility kinetic does the source give for CCOc1ncccc1C(=O)Nc1ccc2nc(C)sc2c1 here?
Its solubility kinetic is 4.2 µg/mL (≈ 13.4 µM).

With CC(C)N(CCn1cnc2c([nH]c3ccccc32)c1=O)C(C)C as the compound, how does the solubility kinetic read?
Its solubility kinetic is 24.5 µg/mL (≈ 78.4 µM).

With CC(C)(CN1CCc2ccccc2C1)NS(=O)(=O)c1ccccc1 as the compound, how does the solubility kinetic read?
Its solubility kinetic is 34.8 µg/mL (≈ 101 µM).

For COc1ccc(OCC(=O)C2CC2)c(C#N)c1, which solubility kinetic is on record?
Its solubility kinetic is 27.5 µg/mL (≈ 119 µM).

For COc1ccc(OC)c(NC(=O)CCN2CCN(C)CC2)c1.Cl, which solubility kinetic is on record?
The solubility kinetic was 44.2 µg/mL.

Which solubility kinetic does the source give for COCCNS(=O)(=O)c1cc(OC)c(C)cc1C here?
Its solubility kinetic is over 41 µg/mL.

Which solubility kinetic does the source give for O=C(O)c1ccc2c(c1)C(=O)N(c1ccc(C(=O)OCC(=O)c3ccccc3)cc1)C2=O here?
The solubility kinetic was 45.4 µg/mL (≈ 106 µM).

With CC(CCc1ccccc1)NC(=O)c1ccccc1Cl (stereo unspecified) as the compound, how does the solubility kinetic read?
The solubility kinetic was 41.6 µg/mL (≈ 145 µM).

Which solubility kinetic does the source give for O=C(OC1CCOC1=O)c1cc(Cl)ccc1[N+](=O)[O-] (stereo unspecified) here?
The solubility kinetic was 42.1 µg/mL (≈ 147 µM).

For CCc1ccc(OCC2Cn3c(nc4c3c(=O)[nH]c(=O)n4C)O2)cc1 (stereo unspecified), which solubility kinetic is on record?
The solubility kinetic was 3.8 µg/mL (≈ 11.1 µM).

With CN(C)CCCN1c2ccccc2Sc2ccccc21.Cl as the compound, how does the solubility kinetic read?
The solubility kinetic was over 48.1 µg/mL.

Which solubility kinetic does the source give for O=S(=O)(c1cccc2nonc12)N1CCCCCC1 here?
The solubility kinetic was 15.7 µg/mL (≈ 55.8 µM).

Which solubility kinetic does the source give for O=C(COc1ccc2ccccc2c1)Nc1ccccc1C(=O)O here?
Its solubility kinetic is over 48.2 µg/mL.

Which solubility kinetic does the source give for Clc1ccc(Cn2cnc3ccccc32)cc1 here?
The solubility kinetic was 27 µg/mL (≈ 111 µM).

With CCOc1cc(N2CCOCC2)c(OCC)cc1NC(=O)c1cc(S(=O)(=O)N2CCOCC2)ccc1F as the compound, how does the solubility kinetic read?
The solubility kinetic was 6.5 µg/mL (≈ 12.1 µM).

For Cc1ccc(NC(=O)C2CC(=O)N(C(C)C)C2)cc1C (stereo unspecified), which solubility kinetic is on record?
Its solubility kinetic is over 41.2 µg/mL.

For COC(=O)CCC(=O)c1ccn(S(=O)(=O)c2ccccc2)c1, which solubility kinetic is on record?
Its solubility kinetic is 44.6 µg/mL (≈ 139 µM).

Which solubility kinetic does the source give for Cc1ccccc1CSc1[nH]c(=O)ncc1C here?
Its solubility kinetic is over 36.9 µg/mL.

With CCCOc1ccc(C(CC(=O)O)NC(=O)Cc2ccccc2)cc1 (stereo unspecified) as the compound, how does the solubility kinetic read?
Its solubility kinetic is over 51.2 µg/mL.

Which solubility kinetic does the source give for CN(C)CC#CCC(O)(c1ccccc1)c1ccccc1 here?
Its solubility kinetic is over 41.9 µg/mL.

With Cc1ccccc1CC(=O)Nc1ccon1 as the compound, how does the solubility kinetic read?
The solubility kinetic was 30.3 µg/mL (≈ 140 µM).

With Cc1ccc(CNCc2ccc3c(c2)OCO3)cc1 as the compound, how does the solubility kinetic read?
The solubility kinetic was 32.5 µg/mL (≈ 127 µM).

For COc1cc(C(=O)OCC(=O)NC2CC2)ccc1OCCC(C)C, which solubility kinetic is on record?
The solubility kinetic was 6.8 µg/mL (≈ 20.3 µM).

For CC(=O)Nc1ccc(S(=O)(=O)Nc2nc(C)nc3sc(C)c(C)c23)cc1, which solubility kinetic is on record?
Its solubility kinetic is over 58.6 µg/mL.

For O=C(Nc1ccc(C(=O)N2CCCc3ccccc32)cc1)c1cccs1, which solubility kinetic is on record?
The solubility kinetic was under 0.4 µg/mL.

For O=C(Nc1ccc(OC(F)(F)F)cc1)Oc1ccccc1N1CCCCC1, which solubility kinetic is on record?
Its solubility kinetic is 9.7 µg/mL (≈ 25.5 µM).

For CCOc1ccc(N2C(=O)CC(NCc3ccc(S(N)(=O)=O)cc3)C2=O)cc1 (stereo unspecified), which solubility kinetic is on record?
Its solubility kinetic is 48.7 µg/mL (≈ 121 µM).
